Results from US12492181B2, “Gem-disubstituted piperidine melanocortin subtype-2 receptor (MC2R) antagonists and uses thereof” (Crinetics Pharmaceuticals, Inc., priority 2019, dated 2025).

Target: T1, hMC2 receptor (crude hMC2R membranes from CRE-bla-CHO-K1 cells stably expressing hMC2 receptor and hMRAP accessory protein) (Homo sapiens, UniProt Q01718)
T1 construct: crude membrane fractions
Experiment: hMC2 membrane binding assay ([125I]ACTH (1-39) Tyr23, SPA)
Details: displacement of 0.2 nM [125I]ACTH (1-39) Tyr23 from hMC2R membranes, 1.5 hours at room temperature; read-out: MC2R binding potency
In short: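 Crude membranes from CRE-bla-CHO-K1 cells stably co-expressing hMC2R and hMRAP, premixed with WGA PVT SPA beads in pH 7.4 HEPES buffer (5 mM MgCl2, 1 mM CaCl2, 0.20% BSA, protease inhibitors). Compounds compete with [125I]ACTH(1-39) Tyr23, read by scintillation. Ki from non-linear regression.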

T1 sequence (Q01718 whole entry): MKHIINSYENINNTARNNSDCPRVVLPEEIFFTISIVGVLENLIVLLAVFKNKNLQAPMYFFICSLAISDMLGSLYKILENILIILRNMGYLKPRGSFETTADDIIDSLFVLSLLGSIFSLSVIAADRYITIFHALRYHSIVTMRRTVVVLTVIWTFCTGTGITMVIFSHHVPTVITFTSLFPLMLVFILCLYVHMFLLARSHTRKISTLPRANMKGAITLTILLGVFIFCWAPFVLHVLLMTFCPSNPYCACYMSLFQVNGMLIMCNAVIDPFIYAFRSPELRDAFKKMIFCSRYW
T1 sequence (Q8TCY5 whole entry partner): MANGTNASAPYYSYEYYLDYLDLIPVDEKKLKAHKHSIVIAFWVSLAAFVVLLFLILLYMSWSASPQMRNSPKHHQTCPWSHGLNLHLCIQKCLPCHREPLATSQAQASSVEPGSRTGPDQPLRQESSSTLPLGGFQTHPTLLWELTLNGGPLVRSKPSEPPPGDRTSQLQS

Row | Molecule | Ki [nM]
1 | CCOc1ncccc1-c1ccc(C2(C(=O)N[C@H]3CCN(C)C3)CCN(c3ccc(C(C)(F)F)cc3C#N)CC2)cn1 [Compound 1-59, 1-[2-cyano-4-(1,1-difluoroethyl)phenyl]-4-{2′-ethoxy-[2,3′-bipyridin]-5-yl}-N-[(3S)-1-methylpyrrolidin-3-yl]piperidine-4-carboxamide] | < 10
2 | CCOc1ncccc1-c1ccc(C2(C(=O)NCCN(C)C)CCN(c3ccc(C(F)(F)F)cc3F)CC2)cn1 [Compound 1-222, N-[2-(dimethylamino)ethyl]-4-{2′-ethoxy-[2,3′-bipyridin]-5-yl}-1-[2-fluoro-4-(trifluoromethyl)phenyl]piperidine-4-carboxamide] | < 10
3 | 1-{1-[2-cyano-4-(trifluoromethyl)phenyl]-4-[6-(1-methyl-1H-pyrrol-2-yl)pyridin-3-yl]piperidin-4-yl}-3-[(3R)-1-methylpyrrolidin-3-yl]urea [Compound 2-48] | < 10
4 | CCOc1ccccc1-c1ncc(C2(C(=O)NCCN(C)C)CCN(c3ccc(C(F)(F)F)cc3Cl)CC2)cc1F [Compound 1-291, 1-[2-chloro-4-(trifluoromethyl)phenyl]-N-[2-(dimethylamino)ethyl]-4-[6-(2-ethoxyphenyl)-5-fluoropyridin-3-yl]piperidine-4-carboxamide] | < 10
5 | CN1CC[C@@H](NC(=O)C2(c3ccc(-c4cccc5c4OC(F)(F)O5)nc3)CCN(c3ccc(C(F)(F)F)cc3C#N)CC2)C1 [Compound 1-67, 1-[2-cyano-4-(trifluoromethyl)phenyl]-4-[6-(2,2-difluoro-2H-1,3-benzodioxol-4-yl)pyridin-3-yl]-N-[(3R)-1-methylpyrrolidin-3-yl]piperidine-4-carboxamide] | 10 to 100
6 | CCOc1ncccc1-c1ccc(C2(NC(=O)N3CC[C@@H](NC)C3)CCN(c3ccc(C(F)(F)F)cc3C#N)CC2)cn1 [Compound 2-21] | < 10
7 | COc1ccc(F)cc1-c1ncc(C2(C(=O)N[C@H]3CCN(C)C3)CCN(c3ccc(C(F)(F)F)cc3F)CC2)cc1F [Compound 1-204, 1-[2-fluoro-4-(trifluoromethyl)phenyl]-4-[5-fluoro-6-(5-fluoro-2-methoxyphenyl)pyridin-3-yl]-N-[(3S)-1-methylpyrrolidin-3-yl]piperidine-4-carboxamide] | < 10
8 | COc1ccccc1-c1ncc(C2(C(=O)N[C@@H]3CCN(C)C3)CCN(c3ccc(C(F)(F)F)cc3C#N)CC2)cc1F [Compound 1-126, 1-[2-cyano-4-(trifluoromethyl)phenyl]-4-[5-fluoro-6-(2-methoxyphenyl)pyridin-3-yl]-N-[(3R)-1-methylpyrrolidin-3-yl]piperidine-4-carboxamide] | < 10
9 | Cn1cccc1-c1ccc(C2(C(=O)N[C@H]3CN4CCC3CC4)CCN(c3ccc(C(F)(F)F)cc3C#N)CC2)cn1 [Compound 1-188, N-[(3R)-1-azabicyclo[2.2.2]octan-3-yl]-1-[2-cyano-4-(trifluoromethyl)phenyl]-4-[6-(1-methyl-1H-pyrrol-2-yl)pyridin-3-yl]piperidine-4-carboxamide] | 10 to 100
10 | Cc1sccc1-c1ccc(C2(C(=O)N[C@@H]3CCN(C)C3)CCN(c3ccc(C(F)(F)F)cc3C#N)CC2)cn1 [Compound 1-112, 1-[2-cyano-4-(trifluoromethyl)phenyl]-N-[(3R)-1-methylpyrrolidin-3-yl]-4-[6-(2-methylthiophen-3-yl)pyridin-3-yl]piperidine-4-carboxamide] | < 10
11 | CN1CC[C@H](NC(=O)C2(c3ccc(-c4ccccc4C(F)F)nc3)CCN(c3ccc(C(F)(F)F)cc3C#N)CC2)C1 [Compound 1-151, 1-[2-cyano-4-(trifluoromethyl)phenyl]-4-{6-[2-(difluoromethyl)phenyl]pyridin-3-yl}-N-[(3S)-1-methylpyrrolidin-3-yl]piperidine-4-carboxamide] | < 10
12 | CN1CC(C(=O)NC2(c3ccc(-c4cccn4C)nc3)CCN(c3ccc(C(F)(F)F)cc3C#N)CC2)C1 [Compound 2-45, N-{1-[2-cyano-4-(trifluoromethyl)phenyl]-4-[6-(1-methyl-1H-pyrrol-2-yl)pyridin-3-yl]piperidin-4-yl}-1-methylazetidine-3-carboxamide] | < 10
13 | CCOc1ncccc1-c1ncc(C2(C(=O)NCCNC)CCN(c3ccc(C(F)(F)F)cc3Cl)CC2)cc1F [Compound 1-299, 1-[2-chloro-4-(trifluoromethyl)phenyl]-4-{2′-ethoxy-3-fluoro-[2,3′-bipyridin]-5-yl}-N-[2-(methylamino)ethyl]piperidine-4-carboxamide] | < 10
14 | CCOc1ncccc1-c1ccc(C2(C(=O)NCCN(C)C)CCN(c3ccc(C(F)(F)F)cc3Cl)CC2)cn1 [Compound 1-224, 1-[2-chloro-4-(trifluoromethyl)phenyl]-N-[2-(dimethylamino)ethyl]-4-{2′-ethoxy-[2,3′-bipyridin]-5-yl}piperidine-4-carboxamide] | < 10
15 | CCOc1ncccc1-c1ncc(C2(C(=O)N[C@H]3CCN(C)C3)CCN(c3ccc(C(F)(F)F)cc3C#N)CC2)cn1 [Compound 1-106, 1-[2-cyano-4-(trifluoromethyl)phenyl]-4-[2-(2-ethoxypyridin-3-yl)pyrimidin-5-yl]-N-[(3S)-1-methylpyrrolidin-3-yl]piperidine-4-carboxamide] | < 10
16 | CCOc1ncccc1-c1ccc(C2(C(=O)NCCN(C)C)CCN(c3ccc(C(F)(F)F)cc3C#N)CC2)cc1 [Compound 1-8, 1-[2-cyano-4-(trifluoromethyl)phenyl]-N-[2-(dimethylamino)ethyl]-4-[4-(2-ethoxypyridin-3-yl)phenyl]piperidine-4-carboxamide] | < 10
17 | CCOc1ncccc1-c1ccc(C2(C(=O)N[C@@H]3CCN(C)C3)CCN(c3ccc(C(F)(F)F)nc3C#N)CC2)cn1 [Compound 1-24, 1-[2-cyano-6-(trifluoromethyl)pyridin-3-yl]-4-{2′-ethoxy-[2,3′-bipyridin]-5-yl}-N-[(3R)-1-methylpyrrolidin-3-yl]piperidine-4-carboxamide] | < 10
18 | COc1nc2ccccc2cc1-c1ccc(C2(C(=O)N[C@@H]3CCN(C)C3)CCN(c3ccc(C(F)(F)F)cc3C#N)CC2)cn1 [Compound 1-189, 1-[2-cyano-4-(trifluoromethyl)phenyl]-4-[6-(2-methoxyquinolin-3-yl)pyridin-3-yl]-N-[(3R)-1-methylpyrrolidin-3-yl]piperidine-4-carboxamide] | < 10
19 | CN(C)CCNC(=O)C1(c2ccc(-c3cccn3C)nc2)CCN(c2ccc(C(F)(F)F)cc2C#N)CC1 [Compound 1-216, 1-[2-cyano-4-(trifluoromethyl)phenyl]-N-[2-(dimethylamino)ethyl]-4-[6-(1-methyl-1H-pyrrol-2-yl)pyridin-3-yl]piperidine-4-carboxamide] | < 10
20 | COc1ccccc1-c1ccc(C2(NC(=O)[C@@H]3CCN(C)C3)CCN(c3ccc(C(F)(F)F)cc3C#N)CC2)cn1 [Compound 2-60, (3R)—N-{1-[2-cyano-4-(trifluoromethyl)phenyl]-4-[6-(2-methoxyphenyl)pyridin-3-yl]piperidin-4-yl}-1-methylpyrrolidine-3-carboxamide] | < 10
21 | CCOc1ncccc1-c1ccc(C2(C(=O)N[C@H]3CCN(C)C3)CCN(c3ccc(C(F)(F)F)nc3C#N)CC2)cn1 [Compound 1-26, 1-[2-cyano-6-(trifluoromethyl)pyridin-3-yl]-4-{2′-ethoxy-[2,3′-bipyridin]-5-yl}-N-[(3S)-1-methylpyrrolidin-3-yl]piperidine-4-carboxamide] | < 10
22 | CCc1sccc1-c1ccc(C2(C(=O)N[C@H]3CCN(C)C3)CCN(c3ccc(C(F)(F)F)cc3C#N)CC2)cn1 [Compound 1-147, 1-[2-cyano-4-(trifluoromethyl)phenyl]-4-[6-(2-ethylthiophen-3-yl)pyridin-3-yl]-N-[(3S)-1-methylpyrrolidin-3-yl]piperidine-4-carboxamide] | < 10
23 | CCOc1ncccc1-c1ccc(C2(C(=O)N[C@H]3CCN(C)C3)CCN(c3ccc(C(F)(F)F)cn3)CC2)cn1 [Compound 1-35, 4-{2′-ethoxy-[2,3′-bipyridin]-5-yl}-N-[(3S)-1-methylpyrrolidin-3-yl]-1-[5-(trifluoromethyl)pyridin-2-yl]piperidine-4-carboxamide] | < 10
24 | CCOc1c(F)cccc1-c1ccc(C2(C(=O)N[C@@H]3CCN(C)C3)CCN(c3ccc(C(F)(F)F)cc3C#N)CC2)cn1 [Compound 1-72, 1-[2-cyano-4-(trifluoromethyl)phenyl]-4-[6-(2-ethoxy-3-fluorophenyl)pyridin-3-yl]-N-[(3R)-1-methylpyrrolidin-3-yl]piperidine-4-carboxamide] | < 10
25 | CN1CC[C@@H](NC(=O)C2(c3ccc(-c4cccn4C)nc3)CCN(c3ccc(C(F)(F)F)cc3C#N)CC2)C1 [Compound 1-88, 1-[2-cyano-4-(trifluoromethyl)phenyl]-4-[6-(1-methyl-1H-pyrrol-2-yl)pyridin-3-yl]-N-[(3R)-1-methylpyrrolidin-3-yl]piperidine-4-carboxamide] | < 10
26 | CCOc1ncccc1-c1ccc(C2(C(=O)N[C@@H]3CCN(C)C3)CCN(c3ccc(C(F)(F)F)nc3C(N)=O)CC2)cn1 [Compound 1-25, 3-(4-{2′-ethoxy-[2,3′-bipyridin]-5-yl}-4-{[(3R)-1-methylpyrrolidin-3-yl]carbamoyl}piperidin-1-yl)-6-(trifluoromethyl)pyridine-2-carboxamide] | 10 to 100
27 | CN1CC[C@H](NC(=O)C2(c3ccc(-c4cccn4C4CC4)nc3)CCN(c3ccc(C(F)(F)F)cc3C#N)CC2)C1 [Compound 1-158, 1-[2-cyano-4-(trifluoromethyl)phenyl]-4-[6-(1-cyclopropyl-1H-pyrrol-2-yl)pyridin-3-yl]-N-[(3S)-1-methylpyrrolidin-3-yl]piperidine-4-carboxamide] | < 10
